What is called IC50 is the concentration that inhibits the measured activity by half. Lower therefore signals inhibition by little substance.

One compound from US20230120564A1, “PYRIDO[3,4-D]PYRIMIDINE DERIVATIVE AND THERAPEUTIC PHARMACEUTIC COMPOSITION COMPRISING SAME” (KOREA INSTITUTE OF SCIENCE AND TECHNOLOGY, priority 2020, published 2023) can be followed below.

One assay concerns the target ACK1 (Homo sapiens, UniProt Q07912). The experiment in a line: Kinase inhibitory activity, IC50. The format is biochemical. As for the experimental part:
The inhibitory activities of the compounds of the present invention against two kinases, GCK and ACK1, were measured, and the IC50 values thereof were calculated. As a control, the following compound GNF7 was used.

Another assay has as its target EPHA1 (Homo sapiens, UniProt P21709). Put plainly: full kinase panel biochemical assay. Conditions: single concentration of 1 μM; read-out: percent inhibition of EPHA1. As for the experimental part:
(§1) In order to measure the protein kinase inhibitory activity (% inhibition) of the compound of the present invention, biochemical assay was performed in the full kinase panel. As a test compound, Compound No. 4 was used. The percent inhibition of each kinase when treated with the test compound at a single concentration of 1 μM was measured, and the residual enzyme activity values (%) of the kinases were calculated. Kinases whose calculated residual enzyme activity values (%) was 30% or less (i.e., kinases inhibited by 70% or more) are as follows: ABL1, ABL2/ARG, ACK1, ARAF, BLK, BMX/ETK, BRAF, BRK, BTK, c-Kit, c-Src, CSK, DDR1, DDR2, EPHA1, EPHA2, EPHA3, EPHA4, EPHA5, EPHA6, EPHA7, EPHA8, EPHB1, EPHB2, EPHB3, EPHB4, ERBB2/HER2, ERBB4/HER4, FGFR1, FGFR2, FGFR3, FGR, FLT1/VEGFR1, FLT4/VEGFR3, FMS, FRK/PTK5, FYN, GCK/MAP4K2, HCK, HGK/MAP4K4, JAK1, JAK2, KDR/VEGFR2, KHS/MAP4K5, LCK, LYN, LYN B, MEKK1, MLK4, MYLK3, NEK5, P38a/MAPK14, P38b/MAPK11, PDGFRa, PDGFRb, PEAK1, RET, RIPK2, RIPK4, SIK2, SRPK1, TAOK3/JIK, TLK1, TNK1, TXK, TYK2, YES/YES1, YSK4/MAP3K19, and ZAK/MLTK.

In another assay the target is LYN B (Homo sapiens, UniProt P07948). The experiment in a line: full kinase panel biochemical assay. Particulars: single concentration of 1 μM; read-out: percent inhibition of LYN B. As for the experimental part: as §1
The target of the next assay is BLK (Homo sapiens, UniProt P51451). The experiment in a line: full kinase panel biochemical assay. Conditions: single concentration of 1 μM; read-out: percent inhibition of BLK. On the procedure:
as §1

The target in a further assay is LCK (Homo sapiens, UniProt P06239). Put plainly: full kinase panel biochemical assay. Particulars: single concentration of 1 μM; read-out: percent inhibition of LCK. As for the experimental part: as §1
The target in the next assay is RET (Homo sapiens, UniProt P07949). Put plainly: full kinase panel biochemical assay. Conditions: single concentration of 1 μM; read-out: percent inhibition of RET. On the procedure:
as §1

For a further assay, the target named is c-Kit (Homo sapiens, UniProt P10721). The experiment in a line: full kinase panel biochemical assay. Conditions: single concentration of 1 μM; read-out: percent inhibition of c-Kit. As for the experimental part:
as §1

In a further assay the target is EPHA4 (Homo sapiens, UniProt P54764). The experiment in a line: full kinase panel biochemical assay. Conditions: single concentration of 1 μM; read-out: percent inhibition of EPHA4. On the procedure:
as §1

The next assay addresses HGK/MAP4K4 (Homo sapiens, UniProt O95819). The experiment in a line: full kinase panel biochemical assay. Particulars: single concentration of 1 μM; read-out: percent inhibition of HGK/MAP4K4. On the procedure:
as §1

A further assay has as its target GCK/MAP4K2 (Homo sapiens, UniProt Q12851). The experiment in a line: full kinase panel biochemical assay. Particulars: single concentration of 1 μM; read-out: percent inhibition of GCK/MAP4K2. As for the experimental part: as §1
Another assay addresses JAK1 (Homo sapiens, UniProt P23458). Put plainly: full kinase panel biochemical assay. Conditions: single concentration of 1 μM; read-out: percent inhibition of JAK1. On the procedure:
as §1

A further assay has as its target LYN (Homo sapiens, UniProt P07948). Put plainly: full kinase panel biochemical assay. Conditions: single concentration of 1 μM; read-out: percent inhibition of LYN. As for the experimental part:
as §1

For a further assay, the target named is NEK5 (Homo sapiens, UniProt Q6P3R8). Put plainly: full kinase panel biochemical assay. Particulars: single concentration of 1 μM; read-out: percent inhibition of NEK5. As for the experimental part:
as §1

Another assay has as its target KDR/VEGFR2 (Homo sapiens, UniProt P35968). Put plainly: full kinase panel biochemical assay. Conditions: single concentration of 1 μM; read-out: percent inhibition of KDR/VEGFR2. As for the experimental part:
as §1

Another assay addresses P38b/MAPK11 (Homo sapiens, UniProt Q15759). The experiment in a line: full kinase panel biochemical assay. Particulars: single concentration of 1 μM; read-out: percent inhibition of P38b/MAPK11. As for the experimental part: as §1
The target in the next assay is PDGFRa (Homo sapiens, UniProt P16234). The experiment in a line: full kinase panel biochemical assay. Particulars: single concentration of 1 μM; read-out: percent inhibition of PDGFRa. On the procedure: as §1
A further assay deals with FLT1/VEGFR1 (Homo sapiens, UniProt P17948). Put plainly: full kinase panel biochemical assay. Conditions: single concentration of 1 μM; read-out: percent inhibition of FLT1/VEGFR1. On the procedure: as §1
A further assay concerns the target EPHB2 (Homo sapiens, UniProt P29323). The experiment in a line: full kinase panel biochemical assay. Conditions: single concentration of 1 μM; read-out: percent inhibition of EPHB2. On the procedure: as §1
The target of another assay is TNK1 (Homo sapiens, UniProt Q13470). The experiment in a line: full kinase panel biochemical assay. Particulars: single concentration of 1 μM; read-out: percent inhibition of TNK1. On the procedure: as §1
The next assay addresses P38a/MAPK14 (Homo sapiens, UniProt Q16539). The experiment in a line: full kinase panel biochemical assay. Particulars: single concentration of 1 μM; read-out: percent inhibition of P38a/MAPK14. As for the experimental part:
as §1

Another assay deals with KHS/MAP4K5 (Homo sapiens, UniProt Q9Y4K4). The experiment in a line: full kinase panel biochemical assay. Particulars: single concentration of 1 μM; read-out: percent inhibition of KHS/MAP4K5. On the procedure:
as §1

Another assay has as its target TAOK3/JIK (Homo sapiens, UniProt Q9H2K8). The experiment in a line: full kinase panel biochemical assay. Particulars: single concentration of 1 μM; read-out: percent inhibition of TAOK3/JIK. As for the experimental part: as §1

P38b/MAPK11, sequence (Q15759 whole entry): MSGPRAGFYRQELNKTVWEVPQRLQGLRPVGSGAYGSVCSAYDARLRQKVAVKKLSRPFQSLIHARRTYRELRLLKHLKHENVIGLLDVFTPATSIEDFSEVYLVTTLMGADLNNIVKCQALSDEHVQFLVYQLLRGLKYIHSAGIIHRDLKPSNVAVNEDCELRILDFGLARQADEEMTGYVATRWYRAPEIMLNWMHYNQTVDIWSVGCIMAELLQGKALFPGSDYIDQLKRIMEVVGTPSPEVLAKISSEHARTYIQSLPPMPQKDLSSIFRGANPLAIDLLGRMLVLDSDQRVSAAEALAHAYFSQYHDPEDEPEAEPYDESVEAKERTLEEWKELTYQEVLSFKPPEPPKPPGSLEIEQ
EPHA1, sequence (P21709 26-976): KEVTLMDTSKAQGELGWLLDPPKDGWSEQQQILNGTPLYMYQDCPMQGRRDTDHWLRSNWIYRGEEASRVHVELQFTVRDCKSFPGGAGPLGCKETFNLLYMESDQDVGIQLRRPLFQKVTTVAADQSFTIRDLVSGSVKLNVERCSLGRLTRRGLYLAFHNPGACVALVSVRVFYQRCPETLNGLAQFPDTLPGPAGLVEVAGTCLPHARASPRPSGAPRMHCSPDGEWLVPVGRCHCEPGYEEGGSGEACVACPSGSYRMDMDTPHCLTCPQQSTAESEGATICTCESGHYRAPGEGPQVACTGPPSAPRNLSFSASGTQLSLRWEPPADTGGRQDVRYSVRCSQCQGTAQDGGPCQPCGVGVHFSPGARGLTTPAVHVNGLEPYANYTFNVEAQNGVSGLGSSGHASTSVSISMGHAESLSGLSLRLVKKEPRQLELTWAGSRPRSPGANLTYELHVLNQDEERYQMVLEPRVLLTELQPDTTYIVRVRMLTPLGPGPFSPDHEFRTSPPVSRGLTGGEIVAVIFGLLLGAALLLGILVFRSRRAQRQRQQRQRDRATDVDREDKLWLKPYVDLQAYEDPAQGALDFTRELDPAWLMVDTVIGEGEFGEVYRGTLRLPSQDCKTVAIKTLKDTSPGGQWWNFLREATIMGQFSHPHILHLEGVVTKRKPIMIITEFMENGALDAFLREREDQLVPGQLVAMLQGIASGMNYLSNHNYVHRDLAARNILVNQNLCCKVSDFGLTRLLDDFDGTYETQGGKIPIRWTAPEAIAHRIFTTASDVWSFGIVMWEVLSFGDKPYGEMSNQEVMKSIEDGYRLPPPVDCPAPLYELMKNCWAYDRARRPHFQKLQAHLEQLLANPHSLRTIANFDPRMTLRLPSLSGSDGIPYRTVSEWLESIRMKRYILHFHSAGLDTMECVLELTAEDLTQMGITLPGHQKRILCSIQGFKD
RET, sequence (P07949 29-1114): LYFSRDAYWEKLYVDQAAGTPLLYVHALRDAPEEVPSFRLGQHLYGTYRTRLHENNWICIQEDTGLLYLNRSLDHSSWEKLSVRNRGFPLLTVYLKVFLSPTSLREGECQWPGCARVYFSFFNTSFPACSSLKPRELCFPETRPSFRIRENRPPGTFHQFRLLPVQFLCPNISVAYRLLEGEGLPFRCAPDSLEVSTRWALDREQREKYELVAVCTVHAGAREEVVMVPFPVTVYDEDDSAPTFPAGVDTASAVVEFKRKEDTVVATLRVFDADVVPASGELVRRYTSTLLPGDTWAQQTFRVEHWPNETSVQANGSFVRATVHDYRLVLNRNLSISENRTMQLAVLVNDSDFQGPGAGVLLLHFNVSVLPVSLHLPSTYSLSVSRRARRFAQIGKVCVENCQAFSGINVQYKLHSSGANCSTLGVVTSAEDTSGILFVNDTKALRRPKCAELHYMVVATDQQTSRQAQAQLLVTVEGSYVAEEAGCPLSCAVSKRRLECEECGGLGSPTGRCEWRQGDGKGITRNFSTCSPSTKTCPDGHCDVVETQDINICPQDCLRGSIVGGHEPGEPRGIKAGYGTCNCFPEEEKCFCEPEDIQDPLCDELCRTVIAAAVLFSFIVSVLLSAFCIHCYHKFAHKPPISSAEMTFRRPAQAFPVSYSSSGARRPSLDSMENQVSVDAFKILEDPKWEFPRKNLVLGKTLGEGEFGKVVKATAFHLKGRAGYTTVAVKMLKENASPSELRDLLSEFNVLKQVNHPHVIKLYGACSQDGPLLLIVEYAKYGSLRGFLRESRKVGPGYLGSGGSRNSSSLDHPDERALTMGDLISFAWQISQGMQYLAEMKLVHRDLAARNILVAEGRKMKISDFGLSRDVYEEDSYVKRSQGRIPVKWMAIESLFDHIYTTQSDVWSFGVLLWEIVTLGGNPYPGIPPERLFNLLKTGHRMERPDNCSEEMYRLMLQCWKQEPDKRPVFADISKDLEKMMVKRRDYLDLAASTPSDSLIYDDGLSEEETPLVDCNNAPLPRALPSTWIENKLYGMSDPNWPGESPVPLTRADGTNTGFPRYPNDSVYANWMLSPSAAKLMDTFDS
PDGFRa, sequence (P16234 24-1089): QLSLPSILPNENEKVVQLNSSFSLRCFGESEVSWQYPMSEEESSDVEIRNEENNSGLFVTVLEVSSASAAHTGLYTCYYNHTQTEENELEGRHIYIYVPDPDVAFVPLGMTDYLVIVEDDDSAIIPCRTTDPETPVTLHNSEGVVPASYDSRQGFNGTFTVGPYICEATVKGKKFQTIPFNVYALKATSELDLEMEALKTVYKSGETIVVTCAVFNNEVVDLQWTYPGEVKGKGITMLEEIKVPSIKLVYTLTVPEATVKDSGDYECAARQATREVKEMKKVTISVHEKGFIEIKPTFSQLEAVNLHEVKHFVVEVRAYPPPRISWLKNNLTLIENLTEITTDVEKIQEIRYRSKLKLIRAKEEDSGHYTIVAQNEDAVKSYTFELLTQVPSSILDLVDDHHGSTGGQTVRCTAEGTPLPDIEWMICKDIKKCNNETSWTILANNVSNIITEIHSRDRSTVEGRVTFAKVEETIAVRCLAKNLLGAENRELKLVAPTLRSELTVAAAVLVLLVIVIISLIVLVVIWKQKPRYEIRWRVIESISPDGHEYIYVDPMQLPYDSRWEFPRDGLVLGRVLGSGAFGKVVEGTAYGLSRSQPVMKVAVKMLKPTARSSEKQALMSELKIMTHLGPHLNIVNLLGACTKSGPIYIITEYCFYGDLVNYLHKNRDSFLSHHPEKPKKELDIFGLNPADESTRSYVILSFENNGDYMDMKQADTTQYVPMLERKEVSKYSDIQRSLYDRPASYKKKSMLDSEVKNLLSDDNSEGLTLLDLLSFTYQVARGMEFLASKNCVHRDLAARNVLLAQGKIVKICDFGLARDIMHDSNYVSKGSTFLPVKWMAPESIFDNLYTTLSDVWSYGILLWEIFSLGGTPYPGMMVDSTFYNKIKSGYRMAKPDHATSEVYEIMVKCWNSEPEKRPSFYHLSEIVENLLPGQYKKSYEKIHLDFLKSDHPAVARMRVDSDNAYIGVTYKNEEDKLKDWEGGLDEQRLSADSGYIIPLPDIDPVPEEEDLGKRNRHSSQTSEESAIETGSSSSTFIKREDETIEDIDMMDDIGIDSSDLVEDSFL
LCK, sequence (P06239 whole entry): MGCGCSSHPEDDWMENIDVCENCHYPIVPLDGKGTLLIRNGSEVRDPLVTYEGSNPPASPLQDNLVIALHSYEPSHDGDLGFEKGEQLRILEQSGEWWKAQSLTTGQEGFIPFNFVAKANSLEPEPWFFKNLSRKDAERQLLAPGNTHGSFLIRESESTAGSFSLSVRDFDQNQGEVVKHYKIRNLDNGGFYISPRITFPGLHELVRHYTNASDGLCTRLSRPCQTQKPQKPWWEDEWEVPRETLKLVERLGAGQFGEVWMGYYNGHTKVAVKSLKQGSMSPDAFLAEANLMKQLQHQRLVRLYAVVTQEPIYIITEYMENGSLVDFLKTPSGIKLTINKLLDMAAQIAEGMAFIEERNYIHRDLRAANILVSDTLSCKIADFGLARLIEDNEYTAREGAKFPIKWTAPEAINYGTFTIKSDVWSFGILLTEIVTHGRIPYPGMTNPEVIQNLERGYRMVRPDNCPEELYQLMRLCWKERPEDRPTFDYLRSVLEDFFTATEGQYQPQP
c-Kit, sequence (P10721 26-976): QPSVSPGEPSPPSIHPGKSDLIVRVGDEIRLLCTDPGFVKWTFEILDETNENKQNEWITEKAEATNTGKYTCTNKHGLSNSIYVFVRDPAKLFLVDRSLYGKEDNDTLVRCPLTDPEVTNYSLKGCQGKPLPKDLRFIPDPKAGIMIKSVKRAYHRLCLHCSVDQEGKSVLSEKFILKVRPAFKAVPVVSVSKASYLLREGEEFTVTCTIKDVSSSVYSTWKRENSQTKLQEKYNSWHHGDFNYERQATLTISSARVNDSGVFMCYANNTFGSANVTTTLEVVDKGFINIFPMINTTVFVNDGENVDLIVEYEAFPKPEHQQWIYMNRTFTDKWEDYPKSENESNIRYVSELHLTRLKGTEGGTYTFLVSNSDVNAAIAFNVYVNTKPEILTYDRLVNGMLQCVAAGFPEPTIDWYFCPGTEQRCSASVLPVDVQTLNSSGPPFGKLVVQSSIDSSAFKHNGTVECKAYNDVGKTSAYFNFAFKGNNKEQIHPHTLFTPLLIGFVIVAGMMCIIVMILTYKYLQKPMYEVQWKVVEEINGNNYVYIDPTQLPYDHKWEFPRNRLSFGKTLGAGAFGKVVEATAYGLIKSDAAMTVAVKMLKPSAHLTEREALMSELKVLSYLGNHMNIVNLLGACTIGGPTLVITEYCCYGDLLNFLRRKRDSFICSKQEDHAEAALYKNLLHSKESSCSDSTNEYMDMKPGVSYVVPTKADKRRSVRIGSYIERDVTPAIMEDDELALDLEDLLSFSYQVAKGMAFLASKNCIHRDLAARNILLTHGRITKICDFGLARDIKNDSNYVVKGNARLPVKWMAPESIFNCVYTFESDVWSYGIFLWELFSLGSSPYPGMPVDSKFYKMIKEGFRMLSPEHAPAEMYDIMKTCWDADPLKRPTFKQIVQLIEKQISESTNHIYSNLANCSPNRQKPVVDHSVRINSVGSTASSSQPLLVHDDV

Take `Cc1ccc(Nc2ncc3cc(-c4cc(NC(=O)c5cccc(C(F)(F)F)c5)ccc4C)ncc3n2)cn1` [Compound No. 4, N-(4-methyl-3-(2-((6-methylpyridin-3-yl)amino)pyrido[3,4-d]pyrimidin-6-yl)phenyl)-3-(trifluoromethyl)benzamide]: the IC50 against ACK1 was below 100 nM. In addition, the inhibition at 1 µM at EPHA1, on LYN B, at BLK, on LCK, on RET and on c-Kit was at least 70% each time. The inhibition at 1 µM on EPHA4, at HGK/MAP4K4, on GCK/MAP4K2, at JAK1, on LYN and on NEK5 was at least 70% each time. For the same compound, the inhibition at 1 µM on KDR/VEGFR2, at P38b/MAPK11, on PDGFRa, at FLT1/VEGFR1, at EPHB2 and on TNK1 was at least 70% in each case. In addition, the inhibition at 1 µM at P38a/MAPK14, on KHS/MAP4K5 and on TAOK3/JIK was at least 70% throughout.
